Legend:
[1] = cited from earlier work
[2] = test system: lyso-PAF:acetyl-CoA acetyltransferase; details: cited from earlier work
[3] = test system: platelet cyclooxygenase; assay: Thromboxane B2 synthesis by arachidonic acid-stimulated platelet-rich plasma in vitro; type: cell-based, male Sprague-Dawley rats; details: ASA/SA 1:1 w/w, TX B2
From the text: Was done manually by the method of Brecher and Conkite (1953) using phase contrast microscopy (Balplan) with a 40×annulus, 40×phase objective, and 10×ocular (total of 400×), and a special platelet counting chamber (American Optical Corp., Buffalo, N.Y.) and dilution with 1% ammonium oxalate. The platelet-rich plasma (PRP) was adjusted by dilution with platelet-poor plasma (PPP) to give a final count of 1×10^9 platelets/ml.
Arachidonic acid (as the sodium salt, >99.0% pure) was obtained from Sigma Chemical Co. and a stock solution of 34.5 mM was prepared by dissolving in isotonic saline. 20 μl of the stock solution were added to 440 μl of PRP (400 μl of PRP and 20 or 40 μl of treatment solution ±20 μl of saline) to make a 23 fold dilution. The final concentration of AA in PRP was 1.5 mM.
EDTA solution was prepared by adding 2 gm disodium EDTA and 0.8 gm NaCl and were adjusted to pH 7.4 with NaOH and made up to a final volume of 100 ml in distilled water. ASA solution was prepared by dissolving 30 mg in 10 ml of isotonic saline to make a solution of 3 mg/ml.
950 μl of EDTA solution were added to 50 μl of ASA solution and the mixture was vortexed. 40 μl of the mixture were pipetted in the experiment test tubes to stop further prostaglandin production.
Platelet-rich plasma (PRP) was prepared from male Sprague-Dawley rats (300-325 gm). The blood was collected by heart puncture and added to 3.8% citrate solution, final volume 9:1, blood:citrate. The blood was centrifuged at 120×g (750 rpm) for 15 minutes at 4° C. to obtain PRP. The rest of the blood was spun at 1800×g (3000 rpm) for 10 minutes to get the PPP which was used later for dilution of the PRP to achieve the final desired platelet concentration of 1×10^9 platelets/ml. 400 μl of PRP, containing 4×10^8 platelets, were pipetted in polypropylene tubes and the following treatment groups were studied:
1--Baseline (-ve control) tubes: to measure the baseline production of Thromboxane B2 (TX B2) by platelets during the time of the experiment, 60 μl of saline were added and left for 10 minutes in a shaking water bath at 37° C.
2--Control (+ve control) tubes: 20 μl of arachidonic acid (AA) solution were added to achieve a final concentration of 1.5 mM and the tubes were incubated […].
3--ASA and/or SAM treatment tubes: 20 μl of ASA (final conc. 130 μg/ml), 20 μl of SAM solution (final conc. 40 μg/ml), 20 μl of ASA/SAM(L) solution (final conc. 130/40 μg/ml) or 20 μl of ASA/SAM(H) solution (final conc. 130/120 μg/ml) were added to PRP together with 20 μl of saline for 10 minutes, then 20 μl of AA solution were added for additional 10 minutes.
4--ASA/SA treatment: 20 μl of ASA/SA solution (final conc. 130/130 μg/ml) and 20 μl of saline were added to the tubes for 10 minutes before AA was added for further 10 minutes.
5--ASA/SA/SAM treatment: 20 μl of ASA/SA solution (130/130 μg/ml as final conc.) and 20 μl of […] in low (L) or high (H) concentrations (40 or 120 μg/ml, final conc.) were added simultaneously to PRP followed 10 minutes later by AA.
6--SAM/SA treatment: 20 μl of SAM solution (final conc. 40 μg/ml) and 20 μl of SA solution (final conc. 130 μg/ml) were added followed 10 minutes later by AA for additional 10 minutes.
Also, the effect of SAM when administered first to the platelets followed 10 minutes later by ASA was studied to know whether the effect of SAM is time dependent or not.
During the treatment, all the tubes were incubated at 37° C. in a shaking water bath. Ten minutes after the addition of AA, or saline (for the control tubes), the experiment was ended by addition of 40 μl of EDTA/ASA solution. The tubes were immediately centrifuged at 1800×g for 15 minutes at 4° C. to precipitate the platelets and 100 μl of the supernatant were obtained for estimation of their content of TX B2 using a specific radioimmunoassay (Amersham International) (vide infra).
Radioimmunoassay Procedure for Measurement of Thromboxane B2 and 6-keto PG F1alpha […]

[4] = test system: cyclooxygenase; details: in vitro; cited from earlier work

O=C(O)c1ccccc1O [SA, salicylic acid]
Pharmacokinetics linearity ([1]; humans and rats): non-linear and dose-dependent | Distribution and plasma albumin binding ([1]; rat, in vivo): concentration-dependent distribution and plasma albumin binding | Effect on lyso-PAF:acetyl-CoA acetyltransferase [2]: inhibitory effect | Antagonism of ASA effect by SA [3]: ~ 70% | Effect on cyclooxygenase [4]: does not have the capacity to inhibit cyclooxygenase

— patent publication US5389621A, “Method of enhancing the anticoagulant effects of aspirin using salicylamide” (University of Medicine and Dentistry of New Jersey, priority 1994, dated 1995)
